Reference: publication PMC4546427, “Stereoselective Regulation of P-gp Activity by Clausenamide Enantiomers in Caco-2, KB/KBv and Brain Microvessel Endothelial Cells” (PLoS ONE, 2015)

Legend:
Caco-2 cells = experiment: Uptake of CLA enantiomers in Caco-2 cells (LC-MS/MS); type: in vitro ADME, Human; conditions: for Intracellular concentration: Mean±SD, n = 3
Method: Caco-2 cells on 6-well plates (5 × 10^5 cells/well) were cultured in MEM containing 10% (v/v) FBS, 1% (v/v) NEAA, 100 units/mL penicillin and 100 μg/mL streptomycin sulphate at 37°C with 95% air and 5% CO2. When 80%–90% confluence was observed using an inverted light microscope, the cells were treated, respectively, with (−)CLA or (+)CLA at 1, 2.5 and 5 μmol/L for 2 h, washed 3 times with ice-cold PBS, collected into 1.5-mL Eppendorf tubes and centrifuged at 1500 rpm for 5 min. The precipitates were lysed with 80 μL of lysis buffer described above, frozen with liquid nitrogen, then thawed in water at 37°C three times, and then centrifuged at 10,000 rpm for 10 min (4°C). We used 10 μL of supernatant for the determination of protein concentration using Lowry’s method with bovine serum albumin as the standard, and the residue of the supernatants was subjected to extraction with ethyl acetate. The internal standard (IS) was 20 μL of glipizide (5.2 μg/mL). Extracted CLA enantiomer and glipizide were measured by a liquid chromatography-tandem mass spectrometr(LC-MS/MS).
The LC-MS/MS system consisted of an Alliance HT 2795 LC pump, an autosampler, and a Micromass Quattro Premier tandem quadrupole mass spectrometer with an electrospray ionization (ESI) source and Masslynx version 4.1 software (Waters Corp., Milford, MA, USA). The separation of CLA enantiomer and glipizide was performed using an XBridge C18 column (2.1 mm × 50 mm; i.d., 3.5 μm) (Waters Corp., Milford, MA, USA). The column temperature was maintained at 22°C, and the sample injection volume was 20 μL in the autosampler at 4°C. Mobile phases A and B were water with 0.1% (v/v) acetic acid and acetonitrile with 0.1% (v/v) acetic acid, respectively. Gradient elution was used at a flow rate of 0.25 mL/min for 8 min with 80% A and 20% B for 0–2 min, 5% A and 95% B for 2–4 min and 80% A and 20% B for 4.01–8 min. The LC system was connected to the mass spectrometer by an electrospray interface. The positive-ion ESI mode was selected, and the electrospray capillary voltage was 3.5 kV. Desolvation gas (ultrapure nitrogen) flow and cone gas flow were provided separately at rates of 600 L/h and 50 L/h, and source and desolvation temperatures were set at 110°C and 450°C, respectively. Argon was used as a collision gas in collision-induced dissociation of precursor ions at a flow rate of 0.27 mL/min. The data were acquired using multiple reaction monitoring mode and analysed by Masslynx software 4.1. The main parameters (retention time, ion channel, cone voltage and collision energy) were as follows: 2.66 min, 298.2–174.1, 25 V and 17 V for CLA enantiomer; and 2.97 min, 446.7–321.2, 25 V and 12 V for glipizide (IS), respectively. The lower limit of quantification of CLA enantiomer was 0.25 ng/mL. The mean relative recovery was 89%, and intra-assay and inter-assay coefficients of variation were <15%. The range of linearity was 0.25–200 ng/mL with r = 0.999. The concentrations of (−) or (+)CLA were quantified by standard curves according to their peak areas against the IS.

[1] = set-up: method as in PMID 23684935; conditions: cited from earlier work
CYP3A1 = tested on: CYP3A1; set-up: method as in PMID 23684935, PMID 12692891; conditions: rat liver; cited from earlier work
[2] = dose of CLA enantiomer 1.0 μmol/L, 2 h
[3] = dose of CLA enantiomer 2.5 μmol/L, 2 h
[4] = dose of CLA enantiomer 5.0 μmol/L, 2 h

| Intracellular concentration (Caco-2 cells; [2]) [ng/mL] | Intracellular concentration (Caco-2 cells; [3]) [ng/mL] | Intracellular concentration (Caco-2 cells; [4]) [ng/mL] | Ratio (-)/(+) of intracellular concentrations (Caco-2 cells; 1.0 μmol/L, 2 h) | Ratio (-)/(+) of intracellular concentrations (Caco-2 cells; 2.5 μmol/L, 2 h) | Ratio (-)/(+) of intracellular concentrations (Caco-2 cells; 5.0 μmol/L, 2 h) | Ratio (-)/(+) of intracellular concentrations (Caco-2 cells; in the presence of cyclosporine A, data not shown) | SMILES | Ratio [(+)/(−)] of cumulative amounts of biliary excretion [1] | Ratio [(+)/(−)] of cumulative amounts of urinary excretion [1] | Induction of CYP3A1 expression, comparison of enantiomers (CYP3A1) |
| --- | --- | --- | --- | --- | --- | --- | --- | --- | --- | --- |
| 1.093 ± 0.233 | 2.228 ± 0.065 | 4.677 ± 1.029 | – | – | – | – | CN1C(=O)[C@H](O)[C@@H](c2ccccc2)[C@H]1[C@H](O)c1ccccc1 [(+)CLA, 3R,4S,5S,6R-CLA] | 3.49 | 3.81 | – |
| 2.834 ± 0.808 | 4.829 ± 0.603 | 8.853 ± 2.505 | 2.593 | 2.167 | 1.893 | 1.091 | CN1C(=O)[C@@H](O)[C@H](c2ccccc2)[C@@H]1[C@@H](O)c1ccccc1 [(−)CLA, 3S, 4R, 5R, 6S-clausenamide] | – | – | higher expression of CYP3A1 than the (+)-isomer |
